From the supplement of paper PMC9663587

What was measured:
THZ531 = compound: CN(C)C/C=C/C(=O)Nc1ccc(C(=O)N2CCC[C@@H](Nc3ncc(Cl)c(-c4c[nH]c5ccccc45)n3)C2)cc1 [THZ531]
BVD523 = compound: CC(C)Nc1cc(-c2c[nH]c(C(=O)N[C@H](CO)c3cccc(Cl)c3)c2)c(Cl)cn1 [BVD523]
Buparlisib/NVP-BKM120 = compound: Nc1cc(C(F)(F)F)c(-c2cc(N3CCOCC3)nc(N3CCOCC3)n2)cn1 [Buparlisib/NVP-BKM120]
Olaparib/AZD2281 = compound: O=C(c1cc(Cc2n[nH]c(=O)c3ccccc23)ccc1F)N1CCN(C(=O)C2CC2)CC1 [Olaparib/AZD2281]
LEE011/Ribociclib = compound: CN(C)C(=O)c1cc2cnc(Nc3ccc(N4CCNCC4)cn3)nc2n1C1CCCC1 [LEE011/Ribociclib]
R0-3306 = compound: C1=CC2=C(C=CC(=C2)C=C3C(=O)NC(=NCC4=CC=CS4)S3)N=C1 [R0-3306]
[1] = compound: CCc1cnn2c(NCc3ccc[n+]([O-])c3)cc(N3CCCC[C@H]3CCO)nc12
[2] = compound: CCCCOc1c(C(=O)c2c(F)cc(C)cc2F)c[nH]c2nncc1-2
[3] = compound: CC(=O)c1c(C)c2cnc(Nc3ccc(N4CCNCC4)cn3)nc2n(C2CCCC2)c1=O
AZD5363 = compound: NC1(C(=O)N[C@@H](CCO)c2ccc(Cl)cc2)CCN(c2nc[nH]c3nccc2-3)CC1 [AZD5363]
Cediranib/AZD2171 = compound: COc1cc2c(Oc3ccc4[nH]c(C)cc4c3F)ncnc2cc1OCCCN1CCCC1 [Cediranib/AZD2171]
Ceritinib/LDK378 = compound: Cc1cc(Nc2ncc(Cl)c(Nc3ccccc3S(=O)(=O)C(C)C)n2)c(OC(C)C)cc1C1CCNCC1 [Ceritinib/LDK378]
AZD1775 = compound: C=CCn1c(=O)c2cnc(Nc3ccc(N4CCN(C)CC4)cc3)nc2n1-c1cccc(C(C)(C)O)n1 [AZD1775]
senexin b = compound: CN1CCN(C(=O)c2ccc3cc(CCNc4ncnc5ccc(C#N)cc45)ccc3c2)CC1 [senexin b]
Dasatinib = compound: Cc1nc(Nc2ncc(C(=O)Nc3c(C)cccc3Cl)s2)cc(N2CCN(CCO)CC2)n1 [Dasatinib]
SHP099 = compound: CC1(CCN(CC1)C2=CN=C(C(=N2)N)C3=C(C(=CC=C3)Cl)Cl)N [SHP099]
Luminespib/NVP-AUY922 = compound: CCNC(=O)c1noc(-c2cc(C(C)C)c(O)cc2O)c1-c1ccc(CN2CCOCC2)cc1 [Luminespib/NVP-AUY922]
TGX221 = compound: CC1=CN2C(=O)C=C(N=C2C(=C1)C(C)NC3=CC=CC=C3)N4CCOCC4 [TGX221]
Volasertib/BI6727 = compound: CC[C@@H]1C(=O)N(C)c2cnc(Nc3ccc(C(=O)N[C@H]4CC[C@H](N5CCN(CC6CC6)CC5)CC4)cc3OC)nc2N1C(C)C [Volasertib/BI6727]
Paclitaxel = compound: CC(=O)O[C@H]1C(=O)[C@@]2(C)[C@H]([C@H](OC(=O)c3ccccc3)[C@]3(O)C[C@H](OC(=O)[C@H](O)[C@@H](NC(=O)c4ccccc4)c4ccccc4)C(C)=C1C3(C)C)[C@]1(OC(C)=O)CO[C@@H]1C[C@@H]2O [Paclitaxel]
BSJ-03-123 = compound: CC(=O)c1c(C)c2cnc(Nc3ccc(N4CCN(CCOCCOCCOCCNC(=O)COc5cccc6c5C(=O)N(C5CCC(=O)NC5=O)C6=O)CC4)cn3)nc2n(C2CCCC2)c1=O [BSJ-03-123]
[4] = compound: CNc1nc(-c2ccc3c(N)n[nH]c3c2)cc(N2C[C@@H](C(=O)NC3CCCCC3)CC[C@H]2C)n1
THZ-P1-2 = compound: CN(C)C/C=C/C(=O)NC1=CC=C(C=C1)C(=O)NC2=CC=CC(=C2)NC3=NC=NC(=C3)C4=CNC5=CC=CC=C54 [THZ-P1-2]
Cabozantinib = compound: COc1cc2nccc(Oc3ccc(NC(=O)C4(C(=O)Nc5ccc(F)cc5)CC4)cc3)c2cc1OC [Cabozantinib]
THZ1 = compound: CN(C)C/C=C/C(=O)Nc1ccc(C(=O)Nc2cccc(Nc3ncc(Cl)c(-c4c[nH]c5ccccc45)n3)c2)cc1 [THZ1]
Alpelisib/BYL719 = compound: Cc1nc(NC(=O)N2CCC[C@H]2C(N)=O)sc1-c1ccnc(C(C)(C)C(F)(F)F)c1 [Alpelisib/BYL719]
Doxorubicin = compound: COc1cccc2c1C(=O)c1c(O)c3c(c(O)c1C2=O)C[C@@](O)(C(=O)CO)C[C@@H]3O[C@H]1C[C@H](N)[C@H](O)[C@H](C)O1 [Doxorubicin]
Rucaparib = compound: CNCc1ccc(-c2[nH]c3cc(F)cc4c3c2CCNC4=O)cc1 [Rucaparib]
[5] = compound: Cc1nn(C)c(COc2ccc(N3CCN(S(=O)(=O)N(C)C)CC3)cc2)c1-c1cccc2c(CCCOc3cccc4ccccc34)c(C(=O)O)n(CCN3CCOCC3)c12
INK128/MLN0128 = compound: CC(C)n1nc(-c2ccc3oc(N)nc3c2)c2c(N)ncnc21 [INK128/MLN0128]
Neratinib/HKI272 = compound: CCOc1cc2ncc(C#N)c(Nc3ccc(OCc4ccccn4)c(Cl)c3)c2cc1NC(=O)/C=C/CN(C)C [Neratinib/HKI272]
Torin2 = compound: C1=CC(=CC(=C1)N2C(=O)C=CC3=CN=C4C=CC(=CC4=C32)C5=CN=C(C=C5)N)C(F)(F)F [Torin2]
Pictilisib/GDC0941 = compound: CS(=O)(=O)N1CCN(Cc2cc3nc(-c4cccc5[nH]ncc45)nc(N4CCOCC4)c3s2)CC1 [Pictilisib/GDC0941]
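Further: breast cancer and non-malignant breast epithelial cell lines, Deep Dye Drop or Dye Drop imaging, nine half-log doses, GR normalized to time-zero plates and DMSO-only controls.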

Cell Line | GR50, 72 h (THZ531) | GR50, 72 h (BVD523) | GR50, 72 h (Buparlisib/NVP-BKM120) | GR50, 72 h (Olaparib/AZD2281) | GR50, 72 h (LEE011/Ribociclib) | GR50, 72 h (R0-3306) | GR50, 72 h [1] | GR50, 72 h [2] | GR50, 72 h [3] | GR50, 72 h (AZD5363) | GR50, 72 h (Cediranib/AZD2171) | GR50, 72 h (Ceritinib/LDK378) | GR50, 72 h (AZD1775) | GR50, 72 h (senexin b) | GR50, 72 h (Dasatinib) | GR50, 72 h (SHP099) | GR50, 72 h (Luminespib/NVP-AUY922) | GR50, 72 h (TGX221) | GR50, 72 h (Volasertib/BI6727) | GR50, 72 h (Paclitaxel) | GR50, 72 h (BSJ-03-123) | GR50, 72 h [4] | GR50, 72 h (THZ-P1-2) | GR50, 72 h (Cabozantinib) | GR50, 72 h (THZ1) | GR50, 72 h (Alpelisib/BYL719) | GR50, 72 h (Doxorubicin) | GR50, 72 h (Rucaparib) | GR50, 72 h [5] | GR50, 72 h (INK128/MLN0128) | GR50, 72 h (Neratinib/HKI272) | GR50, 72 h (Torin2) | GR50, 72 h (Pictilisib/GDC0941)
HCC202 | 0.0588 µM | > 10 µM | 0.431 µM | > 10 µM | > 10 µM | 5.71 µM | 0.0137 µM | 0.0699 µM | > 3.16 µM | > 10 µM | 7.85 µM | 4.75 µM | 0.051 µM | > 10 µM | 0.0186 µM | > 10 µM | 0.0114 µM | > 10 µM | 0.015 µM | 0.00379 µM | 3.36 µM | 0.842 µM | 6.48 µM | > 10 µM | 0.0212 µM | 0.465 µM | 0.0268 µM | > 10 µM | > 10 µM | 0.0112 µM | 0.0317 µM | 0.0137 µM | 0.208 µM
MDAMB468 | 0.0412 µM | 1.64 µM | 0.832 µM | 7.92 µM | > 10 µM | 4.57 µM | 0.0156 µM | 0.133 µM | > 3.16 µM | > 10 µM | 3.92 µM | 0.767 µM | 0.25 µM | 2.04 µM | 4.41 µM | > 10 µM | 0.00483 µM | > 10 µM | 0.0021 µM | 0.00135 µM | 1.71 µM | > 10 µM | 3.59 µM | 8.97 µM | 0.0236 µM | > 10 µM | 0.00542 µM | 8.56 µM | > 10 µM | 0.0235 µM | 0.158 µM | 0.016 µM | 2.33 µM
MCF10A | 0.358 µM | 1.28 µM | 1.47 µM | > 10 µM | > 10 µM | 5.9 µM | 0.0162 µM | 0.504 µM | 1.95 µM | > 10 µM | 9.75 µM | 2.99 µM | 6.21 µM | > 10 µM | 0.709 µM | > 10 µM | 0.00762 µM | > 10 µM | 0.0221 µM | 0.00268 µM | 1.09 µM | > 10 µM | 7 µM | > 10 µM | 0.0723 µM | > 10 µM | 0.0108 µM | > 10 µM | > 10 µM | 0.0242 µM | 0.102 µM | 0.032 µM | 1.88 µM
SUM52PE | 0.149 µM | 5.04 µM | 0.738 µM | > 10 µM | > 10 µM | 5.05 µM | 0.0196 µM | 0.112 µM | 0.564 µM | 3.52 µM | 0.17 µM | > 10 µM | 4.37 µM | > 10 µM | 0.238 µM | > 10 µM | 0.00584 µM | > 10 µM | 0.0198 µM | 0.00165 µM | 3.42 µM | 8.3 µM | 6.06 µM | 0.736 µM | 0.0156 µM | 2.74 µM | 0.049 µM | > 10 µM | 8.59 µM | 0.0172 µM | 3.11 µM | 0.0154 µM | 0.477 µM
HCC38 | 0.177 µM | 4.75 µM | 1.27 µM | 8.42 µM | 0.537 µM | 7.29 µM | 0.0126 µM | 0.00391 µM | 0.0597 µM | > 10 µM | 1.59 µM | 1.83 µM | 0.00378 µM | > 10 µM | 5.69 µM | > 10 µM | 0.00714 µM | > 10 µM | 0.00822 µM | 0.00147 µM | 0.0453 µM | > 10 µM | 4.23 µM | 7.6 µM | 0.0239 µM | > 10 µM | 0.00955 µM | > 10 µM | > 10 µM | 0.0191 µM | 3.15 µM | 0.0105 µM | 6.55 µM
